Measured values: BindingDB's records for patent US10618914 (University of Pittsburgh, 2020)

Molecular target: T1, Signal transducer and activator of transcription 1-alpha/beta (Homo sapiens, UniProt P42224)
T1 sequence (P42224 whole entry): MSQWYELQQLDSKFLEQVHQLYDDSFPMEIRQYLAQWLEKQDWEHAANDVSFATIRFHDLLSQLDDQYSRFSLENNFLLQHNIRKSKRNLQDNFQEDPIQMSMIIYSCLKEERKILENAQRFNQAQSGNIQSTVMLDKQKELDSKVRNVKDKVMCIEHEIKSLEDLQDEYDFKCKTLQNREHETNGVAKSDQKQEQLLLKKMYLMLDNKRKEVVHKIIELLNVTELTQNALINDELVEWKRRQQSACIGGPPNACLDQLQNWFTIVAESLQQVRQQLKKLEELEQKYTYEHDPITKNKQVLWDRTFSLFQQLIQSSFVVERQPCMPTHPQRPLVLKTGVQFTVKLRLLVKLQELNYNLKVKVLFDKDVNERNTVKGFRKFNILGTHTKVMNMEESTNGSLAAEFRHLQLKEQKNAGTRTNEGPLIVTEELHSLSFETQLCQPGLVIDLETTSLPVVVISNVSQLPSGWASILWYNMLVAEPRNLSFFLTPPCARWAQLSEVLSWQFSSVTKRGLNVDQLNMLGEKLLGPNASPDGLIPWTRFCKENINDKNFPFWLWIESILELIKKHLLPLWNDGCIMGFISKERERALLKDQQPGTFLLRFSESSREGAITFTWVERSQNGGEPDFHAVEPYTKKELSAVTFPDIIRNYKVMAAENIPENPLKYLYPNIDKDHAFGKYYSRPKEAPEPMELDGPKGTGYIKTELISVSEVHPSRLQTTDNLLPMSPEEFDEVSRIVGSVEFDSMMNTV
Test: Bioassay Evaluation
Method: Compound samples (in 3-5 mg quantities) were evaluated in a variety of assays.

SMILES | IC50 [µM]
CC1(C)Sc2nnc(-c3[nH]nc4c3CCC4)n2N=C1c1ccc(Cl)c(Cl)c1 [US10618914, Compound 32] | > 50
CC1Sc2nnc(-c3[nH]nc4c3CCC4)n2N=C1c1ccc(Cl)c(Cl)c1 (configuration not stated) [US10618914, Compound 19] | > 50
